These are literature values, as cited in paper PMC8155022 (Scientific Reports, 2021).

The subject of data set [1] is activated CCR6+ T cells from human peripheral blood. On the set-up: method as in PMID 27905482. To be noted: cited from earlier work.
Data set [2] concerns patients with moderate to severe plaque psoriasis. More on the design: method as in earlier work. To be noted: 4 weeks of treatment, cited from earlier work.

`COc1nc2ccc([C@@](O)(c3ccc(C)nc3C)c3cnnn3C)cc2c(Cl)c1Cc1ccc(C(F)(F)F)cc1` [JNJ-54271074]: in data set [1], the IL-10 production result is “slightly increased” and the IL-17A production result was “greatly reducing”.

`CCS(=O)(=O)c1ccc(CNC(=O)c2cnc3c(c2)CN(C[C@H]2CC[C@H](C(F)(F)F)CC2)[C@H]3C(C)C)nc1` [VTP-43742]: in data set [2], the “reduction of IL-17A and IL-17F in patient serum” value is listed as “up to 75%”. For the same compound, the “efficacy in patients with moderate to severe plaque psoriasis” value in data set [2] (Phase 2a) is on record as “showed efficacy”.
